US6576622B1, “Drug combination for the treatment of viral diseases” (University of Medicine & Dentistry of New Jersey, priority 1995, dated 2003)

Experiments:
[1] = HPLC analysis of phosphorylated AZT metabolites in clones incubated with 3H-AZT; format: in vitro ADME; details: 3H-AZT for 4 hours, HPLC
Description: Cell lines were incubated with ^3H-thymidine or ^3H-AZT for 4 hours. Dried methanol extracts of the clones were redissolved in 60 μof distilled water and centrifuged to remove undissolved material. Twenty microliters of the sample was injected and separated on a 10×100 mm Rainin Hydropore anion exchange column. The nucleosides were eluted from the column with a linear gradient of potassium phosphate (5 mM to 1 M, pH4.0) at a flow rate of 1 ml/min. The samples were collected (0.5 ml), mixed with 5 ml Packard scintillation fluid, and quantitated using a liquid scintillation counter. Phosphorylated derivatives of thymidine and AZT were identified with authentic standards.
Pool sizes were determined by incubation of cells with ^3H-AZT for 4 hours followed by cellular extraction and HPLC. The numbers are expressed as pmoles/10^6 cells. The numbers in parentheses represent the percentage of total radioactive species in that pool.

HIV-1 IIIB = HIV-1 IIIB infection of Jurkat JE6.1 cell populations, AZT IC50 with FUdR (RT activity); format: cell-based; details: for IC50: Human immunodeficiency virus 1, IIIB, Jurkat, 144 h, concentration of AZT for 50% inhibition of RT activity at day 6, F = μM FUdR
Description: HIV-1 production in infected, cultures was determined by a ^32P-based assay as described (34). RT activity was determined by […] of ^32P bound to the DE81 paper by using a Molecular Dynamics phosphorimager. The results are reported as pixel units per microliter of the reaction mixture.
In these experiments, three populations of cells were studied.

[2] = test system: recombinant HIV, recombinant MLV, or replication-competent HIV; format: cell-based
Source text: The presence of a selectable marker gene in the recombinant HIV allowed the isolation of cells infected by the recombinant viruses in the presence of d4T. These cells were characterized by infection with both additional recombinant viruses and by replication-competent viruses.
(§1) Table 6. Colony formation and persistent resistance after Hela-T4 cell infection with MLV-neo virus in the presence and absence of various antiviral agents.

HIV-1IIIB [3] = details: same AZT concentration as for the persistently resistant clone
HIV-gpt [4] = experiment: HIV-gpt colony formation after infection of HeLa-T4 cells in the presence of antiretroviral agents; format: cell-based; details: for Number of colonies: HeLa-T4, plasmid derived HIV-gpt (COS cells), AZT 10 μM, DDI 50 μM, D4T 50 μM, no drug control 8800; for Number of colonies +AZT: colonies by day 10
R116 cell line = experiment: MTT cytotoxicity assay in R116 cells; format: cell-based; details: persistently resistant clone R116, three days
Description: (§2) Three days later, drug cytotoxicity was quantitated with a standard MTT assay in which the uptake and metabolism of 3-[4,5-dimethylthiazol-2-yl]2,5-dephenyltetrazolium bromide (MTT) by cells was measured (14). The amount of formazan produced in 2 hours was determined by dissolving the product in 100% DMSO and then measuring the absorbance at 570 nm.
(§3) HeLa-T4 is the parental cell line.
(§4) Cells sensitive, parental HT4 (open circle), S1 (solid square), Spool (solid circle) and refractory, R116 (open square) were grown in the presence of various concentrations of FUdR. Three days latter, cell viability was determined by the MTT reduction method.

HIV-1IIIB [5] = experiment: HIV-1IIIB infection of S1 and R116 cells with AZT and FUdR (RT activity); format: cell-based; details: 0.1 μM AZT
Description: Infected cells were isolated in gpt selective media and expanded into cell lines. […] Cell line S1 is a control cell line.
Cell free supernatants were assayed for RT activity every two days. Results are the mean of triplicate cultures. Standard deviations were <15%.

HIV-LacZ = format: cell-based; details: for Frequency: frequency of persistently resistant colonies, plasmid derived HIV-gpt
MLV-neo = MLV-neo colony formation in the presence of antiviral agents; format: cell-based, Moloney Leukemia virus; details: Hela-T4, AZT 10 uM, DDI 50 uM, DDC 10 uM, D4T 50 uM, control 9050
Description: Production of recombinant HIV-gpt has been described elsewhere (26). The amphotropic cell line PA317 was transfected with the recombinant murine retrovirus pLXSN (36) and was used as the source of the recombinant MLV-neo virus. Stock preparations of HIV-1IIIB were harvested from H9 cells by the “shake off method” (13). Stock virus infectivity was determined by end-point dilution in MT-2 cells (32). Virus induced cytopathic effect was scored 7 days post-infection and the TCID50 was calculated with the Reed and Muench equation (33).
To confirm this high rate of infection in the absence of genetic drug resistance, we used several other recombinant viruses and host cells. […] A high rate of infection of Jurkat cells in the presence of d4T has also been seen.
Table 5. HIV-gpt produced in COS cells by transfection with plasmids (plasmid derived) is compared with HIV-gpt produced by, rescue from H9/HIV-gpt cell line after infection with HIV-IIIB and cells infected with MLV-neo.
as §1

[6] = MTT cytotoxicity assay in R116 cells; format: cell-based; details: human, R116 cell line, three days, FIG. 8, read-out: ED50 (cytotoxicity)
Description: as §2, §3, §4

in vitro = details: human
HIV-gpt [7] = details: in the presence of TIBO R82150; earlier study (26); cited from earlier work

## Cc1cn([C@H]2C[C@H](N=[N+]=[N-])[C@@H](CO)O2)c(=O)[nH]c1=O [AZT, 3′-Azido-3′-deoxythymidine]
[1]; R116 (“persistently resistant”) cell line
  concentration in cells: 0.0155 pmoles/10^6 cells
[1]; S1 (sensitive) cell line
  concentration in cells: 0.0206 pmoles/10^6 cells
HIV-1 IIIB; JE6.1AZTR cells (refractory to AZT)
  IC50: 0.6 µM
HIV-1 IIIB; JE6.1Con cells (control)
  IC50: 0.2 µM
HIV-1 IIIB; JE6.1 cells
  IC50: 0.3 µM
HIV-1 IIIB; JE6.1AZTR entire population
  increase AZT IC50: 2 fold
[2]
  subset of cells persistently refractory to d4T that were also refractory to the antiviral effects of AZT: approximately 20%
[2]; frequency of persistently resistant colonies, Hela-T4, MLV-neo
  Frequency: 2.2 × 10^−4
HIV-1IIIB [3]
  inhibition of infection of control cells by replication-competent HIV: virtually complete inhibition
HIV-gpt [4]
  Number of colonies: 12
HIV-gpt [4]; HeLa-T4 cells, 10 μM AZT, HIV-gpt by rescue with HIV-1
  Frequency of colony formation in the presence of AZT: 5.0 × 10^−4
HIV-gpt [4]; HeLa-T4 cells, 10 μM AZT, HIV-gpt by rescue with HIV-1, −AZT 1.8 × 10^4
  Number of colonies +AZT: 9
HIV-gpt [4]; HeLa-T4 cells, 10 μM AZT, plasmid-derived (COS cells) HIV-gpt
  Frequency of colony formation in the presence of AZT: 5.2 × 10^−4
HIV-gpt [4]; HeLa-T4 cells, 10 μM AZT, plasmid-derived (COS cells) HIV-gpt, −AZT 3.1 × 10^4
  Number of colonies +AZT: 16
HIV-gpt [4]; HeLa-T4 cells, 10 μM AZT, similar with the two preparations of HIV-gpt
  prevalence of colony formation after infection in the presence of AZT: ~5×10^−4
R116 cell line
  cytotoxic concentration that killed 50%: greater than 1 mM
HIV-1IIIB [5]; R116 cell line refractory to AZT, FIG. 7B
  HIV replication in the presence of drug: significant HIV replication
HIV-1IIIB [5]; control S1 cell line, multiplicity of infection of 1, FIG. 7A
  antiviral efficacy: potent antiviral efficacy
HIV-LacZ; 10 μM AZT, nine of twelve cell lines, like wild type HeLa-T4 cells
  inhibition of HIV-LacZ infection: complete inhibition of infection
HIV-LacZ; HeLa-T4
  Frequency: 3.4 × 10^−4
MLV-neo
  No. of colonies: 12

## O=c1[nH]c(=O)n([C@H]2C[C@H](O)[C@@H](CO)O2)cc1F [FUdR, 2′-deoxy-5-fluorouridine]
HIV-1 IIIB; in all of these studies
  antiviral activity when used by itself: moderate antiviral activity
[6]
  EC50 at 3 days: 700 nM
In vitro
  EC50 at 3 days: 7000 nM

## CC(C)=CCN1Cc2cccc3[nH]c(=S)n(c23)C[C@@H]1C [TIBO]
HIV-gpt [4]
  Number of colonies: 3
HIV-gpt [7]
  prevalence of infection with COS-cell derived virus versus HIV-gpt rescued by replication-competent virus: twenty fold lower
HIV-LacZ; HeLa-T4, identical techniques as for nucleoside analogs
  selection of cells “persistently resistant” to the antiretroviral effects of the drug: no cells “persistently resistant”
HIV-LacZ; colonies from HIV-gpt infection of HeLa-T4 in presence of drug, resistant/tested
  Number of “persistently resistance” colonies: 0/3
HIV-LacZ; HeLa-T4
  Frequency: 0
